Tests used:
[1] = test system: total viable cells (totalViableCells); experiment: MLTA, total live cells concentration-response; format: cell-based; settings: Homo sapiens, 144 h, 6 days, normalized to vehicle control, read-out: total_live normalized cell count
Outline: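 Freeze-thawed primary human bone marrow CD34+ cells in SFEM II with cytokine cocktail, drug added day 0, 6 days at 37°C, 5% CO2. Live/dead counts by 17-parameter flow cytometry with DAPI exclusion, bead-normalized, volume-corrected to cells/mL. Normalized per donor to mean of six vehicle wells; 2–7 donors pooled.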

[2] = test system: neutrophils (neutrophil-lin); experiment: MLTA, Neut: concentration-response and QSP model fit; format: cell-based, human; settings: Homo sapiens, Neutrophil, 144 h
Outline: (§1)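 Drug was added at time 0 to thawed human bone marrow CD34+ cells in SFEM II plus a cytokine cocktail. After 6 days at 37°C, subsets were counted by surface-marker flow with TruCount beads. Vehicle-normalized, donor-pooled data then fed an Emax model separating anti-proliferative from cell-killing effects.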

[3] = test system: late erythroid cells (Eryth II); experiment: MLTA, ErythII: concentration-response and QSP model fit; format: cell-based, human; settings: Homo sapiens, 144 h
Outline: as §1

[4] = test system: early erythroid cells (Eryth I); experiment: MLTA, ErythI: concentration-response and QSP model fit; format: cell-based, human; settings: Homo sapiens, 144 h
Outline: (§2)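 Six-day flow cytometry counts, bead-normalized and expressed relative to the mean of six vehicle wells, underlie each value. Cells were primary human bone marrow CD34+ cells cultured in SFEM II with cytokines promoting multi-lineage differentiation and self-renewal.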

[5] = test system: human bone marrow-derived CD34+ cells differentiated into multiple hematopoietic lineages; experiment: MLTA, overall effects across hematopoietic lineages; format: cell-based; settings: QSP model fit; EmaxT > 1.0 = cell-killing
Outline: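 Thawed primary human bone marrow CD34+ cells grown in SFEM II with a multi-lineage cytokine cocktail, drug added day 0, 6 days at 37°C, 5% CO2. Subsets counted by 17-parameter flow cytometry with TruCount beads, normalized to six vehicle wells per donor (2–7 donors); Emax model fitted per cell type.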

[6] = test system: granulocyte progenitor (Gran-lin prog); experiment: MLTA, GranP: concentration-response and QSP model fit; format: cell-based, human; settings: Homo sapiens, 144 h
Outline: as §2

[7] = test system: multi-potent progenitors (MPPs); experiment: MLTA, MPPs: concentration-response and QSP model fit; format: cell-based, human; settings: Homo sapiens, 144 h
Outline: as §1

[8] = test system: monocyte progenitors (monocyte prog); experiment: MLTA, MonoP: concentration-response and QSP model fit; format: cell-based, human; settings: Homo sapiens, Monocyte, 144 h
Outline: as §2

EC50 ([2]; QSP model fit of 6-day MLTA data): 75 nM | EC50 ([3]; QSP model fit of 6-day MLTA data, read-out: EC50ErythII): 99.5 nM
Compound: CC(=O)c1c(C)c2cnc(Nc3ccc(N4CCNCC4)cn3)nc2n(C2CCCC2)c1=O [palbociclib]
viability at 0.0002 µM ([1]; dose 0.2 nM): 94.8% | viability at 0.001 µM ([1]; dose 1 nM): 99.6% | viability at 0.005 µM ([1]; dose 5 nM): 91.8% | viability at 0.025 µM ([1]; dose 25 nM): 69.8% | viability at 0.1 µM ([1]; dose 100 nM): 39.6% | viability at 0.5 µM ([1]; dose 500 nM): 15.4% | viability at 2.5 µM ([1]; dose 2500 nM): 6.06% | activity at 0.0002 µM ([2]; dose 0.2 nM, 6 days, normalized to vehicle control, read-out: Neut normalized cell count): 95.1% | activity at 0.001 µM ([2]; dose 1 nM, 6 days, normalized to vehicle control, read-out: Neut normalized cell count): 93.8% | activity at 0.005 µM ([2]; dose 5 nM, 6 days, normalized to vehicle control, read-out: Neut normalized cell count): 74.6% | activity at 0.025 µM ([2]; dose 25 nM, 6 days, normalized to vehicle control, read-out: Neut normalized cell count): 51.7% | activity at 0.1 µM ([2]; dose 100 nM, 6 days, normalized to vehicle control, read-out: Neut normalized cell count): 21.1% | activity at 0.5 µM ([2]; dose 500 nM, 6 days, normalized to vehicle control, read-out: Neut normalized cell count): 3.9% | activity at 2.5 µM ([2]; dose 2500 nM, 6 days, normalized to vehicle control, read-out: Neut normalized cell count): 0.666% | Emax ([2]; parameter from QSP model fitting, read-out: Emax_drug_Neut): 18.4% | activity at 0.0002 µM ([3]; dose 0.2 nM, 6 days, normalized to vehicle control, read-out: ErythII normalized cell count): 89% | activity at 0.001 µM ([3]; dose 1 nM, 6 days, normalized to vehicle control, read-out: ErythII normalized cell count): 103% | activity at 0.005 µM ([3]; dose 5 nM, 6 days, normalized to vehicle control, read-out: ErythII normalized cell count): 99.1% | activity at 0.025 µM ([3]; dose 25 nM, 6 days, normalized to vehicle control, read-out: ErythII normalized cell count): 82.3% | activity at 0.1 µM ([3]; dose 100 nM, 6 days, normalized to vehicle control, read-out: ErythII normalized cell count): 56.9% | activity at 0.5 µM ([3]; dose 500 nM, 6 days, normalized to vehicle control, read-out: ErythII normalized cell count): 30.3% | activity at 2.5 µM ([3]; dose 2500 nM, 6 days, normalized to vehicle control, read-out: ErythII normalized cell count): 14.3% | Emax ([3]; parameter from QSP model fitting, read-out: Emax_drug_ErythroidII): 11.8% | activity at 0.0002 µM ([4]; dose 0.2 nM, 6 days, normalized to vehicle control, read-out: ErythI normalized cell count): 104% | activity at 0.001 µM ([4]; dose 1 nM, 6 days, normalized to vehicle control, read-out: ErythI normalized cell count): 109% | activity at 0.005 µM ([4]; dose 5 nM, 6 days, normalized to vehicle control, read-out: ErythI normalized cell count): 96.4% | activity at 0.025 µM ([4]; dose 25 nM, 6 days, normalized to vehicle control, read-out: ErythI normalized cell count): 72.1% | activity at 0.1 µM ([4]; dose 100 nM, 6 days, normalized to vehicle control, read-out: ErythI normalized cell count): 35.1% | activity at 0.5 µM ([4]; dose 500 nM, 6 days, normalized to vehicle control, read-out: ErythI normalized cell count): 9.41% | activity at 2.5 µM ([4]; dose 2500 nM, 6 days, normalized to vehicle control, read-out: ErythI normalized cell count): 2.34% | Emax ([4]; parameter from QSP model fitting, read-out: Emax_drug_ErythroidI): 0.04% | EmaxT effects across cell types (overall statement) [5]: anti-proliferation effects on essentially just the HSCs and GMPs | activity at 0.0002 µM ([6]; dose 0.2 nM, 6 days, normalized to vehicle control, read-out: GranPs normalized cell count): 98.2% | activity at 0.001 µM ([6]; dose 1 nM, 6 days, normalized to vehicle control, read-out: GranPs normalized cell count): 107% | activity at 0.005 µM ([6]; dose 5 nM, 6 days, normalized to vehicle control, read-out: GranPs normalized cell count): 91.8% | activity at 0.025 µM ([6]; dose 25 nM, 6 days, normalized to vehicle control, read-out: GranPs normalized cell count): 73.4% | activity at 0.1 µM ([6]; dose 100 nM, 6 days, normalized to vehicle control, read-out: GranPs normalized cell count): 37% | activity at 0.5 µM ([6]; dose 500 nM, 6 days, normalized to vehicle control, read-out: GranPs normalized cell count): 8.03% | activity at 2.5 µM ([6]; dose 2500 nM, 6 days, normalized to vehicle control, read-out: GranPs normalized cell count): 0.794% | Emax ([6]; parameter from QSP model fitting, read-out: Emax_drug_GranP): 4.7% | activity at 0.0002 µM ([7]; dose 0.2 nM, 6 days, normalized to vehicle control, read-out: MPPs normalized cell count): 86.4% | activity at 0.001 µM ([7]; dose 1 nM, 6 days, normalized to vehicle control, read-out: MPPs normalized cell count): 88.4% | activity at 0.005 µM ([7]; dose 5 nM, 6 days, normalized to vehicle control, read-out: MPPs normalized cell count): 77.3% | activity at 0.025 µM ([7]; dose 25 nM, 6 days, normalized to vehicle control, read-out: MPPs normalized cell count): 45.6% | activity at 0.1 µM ([7]; dose 100 nM, 6 days, normalized to vehicle control, read-out: MPPs normalized cell count): 23.3% | activity at 0.5 µM ([7]; dose 500 nM, 6 days, normalized to vehicle control, read-out: MPPs normalized cell count): 11% | activity at 2.5 µM ([7]; dose 2500 nM, 6 days, normalized to vehicle control, read-out: MPPs normalized cell count): 5.77% | Emax ([7]; parameter from QSP model fitting, read-out: Emax_drug_MPP): 0.0264% | activity at 0.0002 µM ([8]; dose 0.2 nM, 6 days, normalized to vehicle control, read-out: MonoPs normalized cell count): 101% | activity at 0.001 µM ([8]; dose 1 nM, 6 days, normalized to vehicle control, read-out: MonoPs normalized cell count): 92.3% | activity at 0.005 µM ([8]; dose 5 nM, 6 days, normalized to vehicle control, read-out: MonoPs normalized cell count): 97.3% | activity at 0.025 µM ([8]; dose 25 nM, 6 days, normalized to vehicle control, read-out: MonoPs normalized cell count): 44.4% | activity at 0.1 µM ([8]; dose 100 nM, 6 days, normalized to vehicle control, read-out: MonoPs normalized cell count): 14.1% | activity at 0.5 µM ([8]; dose 500 nM, 6 days, normalized to vehicle control, read-out: MonoPs normalized cell count): 4.6% | activity at 2.5 µM ([8]; dose 2500 nM, 6 days, normalized to vehicle control, read-out: MonoPs normalized cell count): 0.787% | Emax ([8]; parameter from QSP model fitting, read-out: Emax_drug_MonoP): 0.0351%
